Test results as given in patent US20200179269A1, “VAPORIZABLE COMPOSITIONS COMPRISING CANNABINOL” (KANABO RESEARCH LTD., priority 2017, published 2020).

System: Loss of Righting Reflex (LORR) in mice
Assay: Sleep induction model in mice: Loss of Righting Reflex (LORR) after Pentobarbital, sleep latency and sleep duration
Format: in vivo, mice BALB/c
Parameters: Sleep latency median / Sleep latency (mean) / Sleep duration median / Sleep duration (mean): unit not given here
Text: The objective of the present study is to evaluate various cannabinoid mixtures with terpenes in the sleep induction model in mice and then in the second part optimize the doses.
Study Variables and End Points • Mortality and morbidity—once a day. • Body weight—during acclimation and before dosing. • Behavioral test—righting reflex—sleep latency and duration
The principle of the study is based on the ability of sleep promoting agents to shorten the time until Loss of Righting Reflex (LORR) occurs and prolong the presence of LORR in rodents treated with established anesthetizing agent.
Mice were be utilized and divided into 62 groups of three in each group.
Combinations of 3 different cannabinoids: CBN, CBD and THC and 2 terpenes: (β-myrcene and linalool were tested. Diazepam (2 mg/kg) was used as a positive control. Ethanol:Cremophor:Saline (1:1:18) was used as negative control. The items were dissolved in Ethanol:Cremophor:Saline. The items, positive and negative controls were IP injected. Three (or four) mice were used for each group. 5 cycles of experiments were performed. In Cycles 1 each cannabinoid at different concentrations was separately administered; in Cycle 2—combinations of the cannabinoids with different concentration were administered (4 mice per group were used for items), in Cycle 3—different terpenes at different concentration were administered, in Cycle 4—combinations of different cannabinoids and terpenes were administered and in Cycle 5—compositions with high content of cannabinoids and low content of terpenes were tested (4 mice per group).
Female mice BALB/c strain of 7 weeks age were used for the experiment. The mice were allowed to acclimatize for at least 5 days. Animals were fed ad libitum a commercial rodent diet (Teklad Certified Global 18% Protein Diet, Harlan cat #2018). Animals had free access to sterilized and acidified drinking water (pH between 2.5 and 3.5) obtained from the municipality supply. Animals were housed under standard laboratory conditions, air conditioned and filtered (HEPA F6/6) with adequate fresh air supply (Minimum 15 air changes/hour). Animals were kept in a climate controlled environment. Temperatures range were 18-24° C. and relative humidity range 30-70% with a 12 hours light and 12 hours dark cycle (6 AM/6 PM).
The duration of the study was one day per cycle. The study was conducted in five cycles (see Tables 10-15). Each Test Item or vehicle formulation was administrated to three (or four) animals per group. Morbidity and mortality was checked once a day.
Sleeping Test was performed according to Pharmaseed's SOP No. 130: “Loss of Righting Reflex”. Mice were injected intraperitoneally (IP) with the positive control Diazepam (2 mg/kg, IP), vehicle or with the Test Items 30 minutes prior to Pentobarbital (40 mg/kg, IP) administration. Observation of the mouse begun immediately after administration of Pentobarbital. Once the mouse was asleep (the loss of righting reflex—LORR), it was be transferred to a home cage and placed on its back. Mice was considered awake when they could successfully upright themselves (all four feet in contact with the surface). Once a mouse righted itself, it was placed on its back once again and allowed to right a second time for confirmation. Expected sleep onset and duration of the negative control group was 5-8 min and 20-25 min, respectively. For positive control expected sleep onset and duration were 3-4 min and 40-50 min, respectively.
While the animals were asleep, fatty ophthalmic ointment (e.g. Duratears®) was be applied to their eyes to avoid drying of the eye. Also, since Diazepam might cause hypothermia, the cages with the sleeping mice were be placed on a heating pad.
The following parameters were be recorded and served as an index of sleep behavior: • Sleep latency—time required to sleep induction. • Sleep duration.
At termination, the animals were sacrificed by CO2 asphyxiation.

[1] = Cycle 4, group 43F, Diazepam 2 mg/kg
[2] = Cycle 1, high doses (above 5 mg/kg)

SMILES: CCCCCc1cc(O)c2c(c1)OC(C)(C)c1ccc(C)cc1-2 [CBN, 6,6,9-trimethyl-3-pentylbenzo[c]chromen-1-ol]
- dose response for duration of sleep parameter (Cycle 1): moderate dose response
- Sleep duration (mean) (Cycle 1, dose 0.1 mg/kg IP): (26)
- Sleep duration median (Cycle 1, dose 0.1 mg/kg IP): 34
- Sleep latency (mean) (Cycle 1, dose 0.1 mg/kg IP): (5)
- Sleep latency median (Cycle 1, dose 0.1 mg/kg IP): 4
- Sleep duration (mean) (Cycle 1, dose 0.5 mg/kg IP): (14)
- Sleep duration median (Cycle 1, dose 0.5 mg/kg IP): 15
- Sleep latency (mean) (Cycle 1, dose 0.5 mg/kg IP): (8)
- Sleep latency median (Cycle 1, dose 0.5 mg/kg IP): 8
- Sleep duration (mean) (Cycle 1, dose 2 mg/kg IP): (23)
- Sleep duration median (Cycle 1, dose 2 mg/kg IP): 25
- Sleep latency (mean) (Cycle 1, dose 2 mg/kg IP): (6)
- Sleep latency median (Cycle 1, dose 2 mg/kg IP): 6
- Sleep duration (mean) (Cycle 1, dose 5 mg/kg IP): (31)
- Sleep duration median (Cycle 1, dose 5 mg/kg IP): 32
- Sleep latency (mean) (Cycle 1, dose 5 mg/kg IP): (9)
- Sleep latency median (Cycle 1, dose 5 mg/kg IP): 8

SMILES: CN1C(=O)CN=C(c2ccccc2)c2cc(Cl)ccc21 [Diazepam, reference compound]
- state of the mice after awakening (Cycle 1): remained dizzy for a prolonged period of time
- Sleep duration (mean) (Cycle 1, dose 2 mg/kg IP): (94)
- Sleep duration median (Cycle 1, dose 2 mg/kg IP): 94
- Sleep latency (mean) (Cycle 1, dose 2 mg/kg IP): (3)
- Sleep latency median (Cycle 1, dose 2 mg/kg IP): 2
- Sleep duration (mean) (Cycle 2, dose 2 mg/kg IP): (51.7)
- Sleep duration median (Cycle 2, dose 2 mg/kg IP): 56
- Sleep latency (mean) (Cycle 2, dose 2 mg/kg IP): (4.3)
- Sleep latency median (Cycle 2, dose 2 mg/kg IP): 4
- Sleep duration (mean) (Cycle 3, Dose 2, IP): (66.3)
- Sleep duration median (Cycle 3, Dose 2, IP): 60
- Sleep latency (mean) (Cycle 3, Dose 2, IP): (2.3)
- Sleep latency median (Cycle 3, Dose 2, IP): 2
- Sleep duration (mean) [1]: (76)
- Sleep duration median [1]: 69
- Sleep latency (mean) [1]: (3.3)
- Sleep latency median [1]: 3

SMILES: C=C(C)[C@@H]1CCC(C)=C[C@H]1c1c(O)cc(CCCCC)cc1O [CBD, cannabidiol]
- effect on sleeping (Cycle 1, 1 mg/kg dose): assisted in sleeping
- Sleep duration (mean) (Cycle 1, dose 1 mg/kg IP): (14)
- Sleep duration median (Cycle 1, dose 1 mg/kg IP): 9
- Sleep latency (mean) (Cycle 1, dose 1 mg/kg IP): (13)
- Sleep latency median (Cycle 1, dose 1 mg/kg IP): 16
- Sleep duration (mean) (Cycle 1, dose 5 mg/kg IP): (49)
- Sleep duration median (Cycle 1, dose 5 mg/kg IP): 49
- Sleep latency (mean) (Cycle 1, dose 5 mg/kg IP): (6)
- Sleep latency median (Cycle 1, dose 5 mg/kg IP): 6
- Sleep duration (mean) (Cycle 1, dose 20 mg/kg IP): (48)
- Sleep duration median (Cycle 1, dose 20 mg/kg IP): 48
- Sleep latency (mean) (Cycle 1, dose 20 mg/kg IP): (8)
- Sleep latency median (Cycle 1, dose 20 mg/kg IP): 9
- Sleep duration (mean) (Cycle 1, dose 50 mg/kg IP): (84)
- Sleep duration median (Cycle 1, dose 50 mg/kg IP): 68
- Sleep latency (mean) (Cycle 1, dose 50 mg/kg IP): (6)
- Sleep latency median (Cycle 1, dose 50 mg/kg IP): 6

SMILES: C=CC(C)(O)CCC=C(C)C (stereo not shown) [Linalool, linalool]
- Sleep duration (mean) (Cycle 3, Dose 20, IP): (5.3)
- Sleep duration median (Cycle 3, Dose 20, IP): 6
- Sleep latency (mean) (Cycle 3, Dose 20, IP): (5)
- Sleep latency median (Cycle 3, Dose 20, IP): 5
- Sleep duration (mean) (Cycle 3, Dose 100, IP): (5.3)
- Sleep duration median (Cycle 3, Dose 100, IP): 6
- Sleep latency (mean) (Cycle 3, Dose 100, IP): (5.5)
- Sleep latency median (Cycle 3, Dose 100, IP): 5
- Sleep duration (mean) (Cycle 3, Dose 300, IP): (97.3)
- Sleep duration median (Cycle 3, Dose 300, IP): 120
- Sleep latency (mean) (Cycle 3, Dose 300, IP): (2)
- Sleep latency median (Cycle 3, Dose 300, IP): 2
- dose response of the terpene in combination with CBN and CBD (Cycle 4): evident dose response
- Sleep duration (mean) (Cycle 5, dose 10 mg/kg IP): (6)
- Sleep duration median (Cycle 5, dose 10 mg/kg IP): 6.5
- Sleep latency (mean) (Cycle 5, dose 10 mg/kg IP): (8)
- Sleep latency median (Cycle 5, dose 10 mg/kg IP): 8

SMILES: CCCCCc1cc(O)c2c(c1)OC(C)(C)[C@@H]1CCC(C)=C[C@@H]21 [THC, tetrahydrocannabinol]
- state of the mice after awakening (Cycle 1): much more vivid after awakening
- Sleep duration (mean) (Cycle 1, dose 0.5 mg/kg IP): (6)
- Sleep duration median (Cycle 1, dose 0.5 mg/kg IP): 8
- Sleep latency (mean) (Cycle 1, dose 0.5 mg/kg IP): (4)
- Sleep latency median (Cycle 1, dose 0.5 mg/kg IP): 4
- Sleep duration (mean) (Cycle 1, dose 2 mg/kg IP): (12)
- Sleep duration median (Cycle 1, dose 2 mg/kg IP): 0
- Sleep latency (mean) (Cycle 1, dose 2 mg/kg IP): (20)
- Sleep latency median (Cycle 1, dose 2 mg/kg IP): 20
- Sleep duration (mean) (Cycle 1, dose 5 mg/kg IP): (10)
- Sleep duration median (Cycle 1, dose 5 mg/kg IP): 9
- Sleep latency (mean) (Cycle 1, dose 5 mg/kg IP): (25)
- Sleep latency median (Cycle 1, dose 5 mg/kg IP): 24
- Sleep duration (mean) (Cycle 1, dose 10 mg/kg IP): (21)
- Sleep duration median (Cycle 1, dose 10 mg/kg IP): 11
- Sleep latency (mean) (Cycle 1, dose 10 mg/kg IP): (11)
- Sleep latency median (Cycle 1, dose 10 mg/kg IP): 11
- effect on sleep duration [2]: decreases the sleep duration
- effect on sleep latency (time required for falling asleep) [2]: increases the sleep latency
- effect on onset of sleep (Cycle 1, medium concentrations (2-5 mg/kg)): increases the onset of sleep
- effect of addition to the combination of CBN, CBD and terpene (Cycle 4, 0.5 mg/kg): reduced the observed effect

SMILES: C=CC(=C)CCC=C(C)C [Myrcene, β-myrcene]
- Sleep duration (mean) (Cycle 3, Dose 20, IP): (8.7)
- Sleep duration median (Cycle 3, Dose 20, IP): 9
- Sleep latency (mean) (Cycle 3, Dose 20, IP): (4.7)
- Sleep latency median (Cycle 3, Dose 20, IP): 5
- Sleep duration (mean) (Cycle 3, Dose 100, IP): (7.3)
- Sleep duration median (Cycle 3, Dose 100, IP): 7
- Sleep latency (mean) (Cycle 3, Dose 100, IP): (5)
- Sleep latency median (Cycle 3, Dose 100, IP): 5
- Sleep duration (mean) (Cycle 3, Dose 300, IP): (61.3)
- Sleep duration median (Cycle 3, Dose 300, IP): 31
- Sleep latency (mean) (Cycle 3, Dose 300, IP): (3)
- Sleep latency median (Cycle 3, Dose 300, IP): 3
- dose response of the terpene in combination with CBN and CBD (Cycle 4): evident dose response
- Sleep duration (mean) (Cycle 5, dose 10 mg/kg IP): (5)
- Sleep duration median (Cycle 5, dose 10 mg/kg IP): 5
- Sleep latency (mean) (Cycle 5, dose 10 mg/kg IP): (5)
- Sleep latency median (Cycle 5, dose 10 mg/kg IP): 5
